Assay results reported in patent publication US9913854B2, “Methods and compositions for reducing the proliferation of gram positive bacteria” (priority 2012, dated 2018).
≈ marks a conversion by molar mass, not a printed value. Entries after “also recorded” stand apart in the source; their conditions may differ. Read-outs that look alike come from different tables or passages of the source.

Legend:
S. aureus tarO mutant = assay: Dye sensitivity test on agar plates; type: cell-based, Staphylococcus aureus; settings: for selective suppression of growth of tarO mutant but not parental strain on dye agar: Newman ΔtarO vs Newman; for growth on agar with Congo Red: tarO mutant, 0.08% w/v Congo Red
Procedure: (§1) Congo Red sensitivity tests were conducted as previously described (Hubscher et al., FEMS Microbiol. Lett. 295:251-260, 2009), with minor modification. Briefly, 10-fold dilutions, starting at 10^6 colony forming units (CFU) in 5 μL, were spotted on brain heart infusion (BHI) agar or Luria-Bertani (LB) agar, supplemented with 0.08% (w/v) Congo Red where appropriate. The Congo Red agar plates were incubated at 37° C. or 30° C. for 24 hours. As a precaution to prevent possible inactivation of Congo Red by light, the plates were incubated in the dark. Sensitivity to Congo Red was determined by comparing colony density between parental and mutant strains on control and Congo Red plates. Sudan Red 7B (0.08% w/v), Calcofluor White (0.01% w/v), Direct Red (0.08% w/v), Mordant Black (0.08% w/v), or Acid Red (0.08% w/v) in BHI agar were tested similarly.

C. elegans = assay: Toxicity against uninfected C. elegans; type: in vivo, Caenorhabditis elegans; settings: single agent; tunicamycin 6.25-100.0 mg/L, Congo Red 3.1-50.0 mg/L; uninfected worms
Procedure: (§2) C. elegans glp-4(bn2); sek-1(km4) was used for all experiments and infected essentially as described in Breger et al. (PLoS Pathog. 3:e18, 2007), with minor modifications. This mutant line was selected for liquid assay experiments because they are unable to produce progeny at 25° C. (Miyata et al., Genetics 178:903-918, 2008), and the deleted sek-1 gene encodes a conserved mitogen-activated protein (MAP) kinase involved in innate immunity (Kim et al., Science 297:623-626, 2002), expediting the rate of killing. Worms were cultured and maintained on nematode growth medium (NGM) agar containing lawns of E. coli HB101 (Breger et al., PLoS Pathog. 3:e18, 2007).
(§3) To assess the sensitivity of C. elegans to infection by S. aureus RN6390 or an isogenic ΔtarO strain, the bacteria were cultured in TSB at 37° C. Overnight cultures were plated onto 10 cm TSB agar plates for 18 hours at 37° C., and cooled at room temperature for 30 minutes. Washed young adult worms were infected on lawns of S. aureus strains for 3 hours at 25° C. After washing three times with M9, worms were transferred into the wells of a six well microtiter plates (40 worms per well). Each well contained 2 mL of assay medium (20% BHI: 80% M9 v/v) containing various concentrations of Congo Red, tunicamycin, or a combination of Congo Red and tunicamycin. […]

[1] = tested on: C. elegans infected with S. aureus RN6390; assay: C. elegans infection model, S. aureus RN6390; type: in vivo, Caenorhabditis elegans; settings: Congo Red alone 3.1-25.0 mg/L
Procedure: as §2, §3

S. aureus ltaS mutant = assay: Congo Red sensitivity test on agar plates; type: cell-based, Staphylococcus aureus; settings: LB agar, 0.08% w/v Congo Red, 30° C. and 37° C.
Procedure: as §1
To determine whether loss of lipoteichoic acid (LTA) could also generate the Congo Red susceptible phenotype, an ltaS mutant of S. aureus was tested (Oku et al., J. Bacteriol. 191:141-151, 2009). The ltaS mutant is sensitive to heat and low osmolarity (Grundling et al., Proc. Natl. Acad. Sci. U.S.A. 104:8478-8483, 2007; Oku et al., J. Bacteriol. 191:141-151, 2009). Therefore, Congo Red was added at 0.08% w/v to Luria broth (LB) agar (having a higher NaCl concentration than BHI), and the strain was tested for Congo Red sensitivity at 30° C. […]

S. aureus Newman ΔtarO = assay: Kinetics of Congo Red inhibition, growth in TSB; type: cell-based, Staphylococcus aureus; settings: Newman tarO, 10 mg/L Congo Red
Procedure: FIG. 5 is a graph showing the growth of S. aureus strain Newman (closed circles) and Newman ΔtarO (open circles) in tryptic soy broth (TSB) before and following the addition of 10 mg/L Congo Red (black arrow).
To assess kinetics of Congo Red inhibition, growth of S. aureus strain Newman and its tarO mutant were assessed in TSB containing 10 mg/L Congo Red. Newman tarO began to die 3 hours after addition of Congo Red (FIG. 5). To probe the mechanism of killing, Congo Red-inhibited cells were examined by transmission electron microscopy (TEM) (FIGS. 6A-6D). […] Since Congo red contains two sulfonic-acid groups, the MICs for sulfanilamide which is developed from prontocil were determined in the Newman and tarO mutant strains.

S. aureus tarA mutant = assay: Congo Red sensitivity test on agar plates; type: cell-based, Staphylococcus aureus; settings: 0.08% w/v Congo Red
Procedure: as §1

S. aureus tarK mutant = assay: Congo Red sensitivity test on agar plates; type: cell-based, Staphylococcus aureus; settings: 0.08% w/v Congo Red
Procedure: as §1

[2] = tested on: C. elegans infected with S. aureus RN6390 ΔtarO; assay: C. elegans infection model, S. aureus RN6390 ΔtarO; type: in vivo, Caenorhabditis elegans; settings: Congo Red alone 3.1-25.0 mg/L
Procedure: as §2, §3

[3] = tested on: S. aureus tarO and tarA mutants lacking WTA; assay: MIC, for mutants lacking WTA; type: cell-based, Staphylococcus aureus
Procedure: (§4) In vitro susceptibility tests (minimum inhibitory concentration [MIC]) were conducted using the Clinical and Laboratory Standards Institute (CLSI) broth microplate assay guidelines (Clinical and Laboratory Standards Institute, Performance Standards for Antimicrobial Susceptibility Testing; 16th Informational Supplement, CLSI M100-S16, Wayne, Pa., 2006). Because of temperature sensitivity, to determine susceptibility of RN4220 ΔltaS, bacteria were cultured at 30° C. for 20 h.
Minimum inhibitory concentrations (MICs) for Congo Red were determined by microdilution assay. Consistent with the results of agar plate tests, the parental strain RN4220, and isogenic tarK, and ltaS mutants, as well as an ltaS strain complemented on a multicopy plasmid, were all resistant to Congo Red at concentrations>1024 mg/L (Table 2).

S. aureus NewmanΔtarO = assay: MIC, CLSI broth microplate assay; type: cell-based; settings: Staphylococcus aureus
Procedure: as §4

S. aureus RN6390 = assay: MIC, CLSI broth microplate assay; type: cell-based; settings: Staphylococcus aureus; strain RN6390
Procedure: as §4

S. aureus RN4220ΔtarO = assay: MIC, CLSI broth microplate assay; type: cell-based; settings: Staphylococcus aureus
Procedure: as §4

S. aureus RN6390ΔtarO = assay: MIC, CLSI broth microplate assay; type: cell-based; settings: Staphylococcus aureus
Procedure: as §4

S. aureus RN4220ΔtarA = assay: MIC, CLSI broth microplate assay; type: cell-based; settings: Staphylococcus aureus
Procedure: as §4

S. aureus strain Newman = assay: Checkerboard assay, Congo Red and tunicamycin; type: cell-based, Staphylococcus aureus
Procedure: A standard checkerboard assay, using Congo Red and tunicamycin, was performed as described in Lorian (Antibiotics in Laboratory Medicine, 4th Edition, Baltimore, Md., Williams & Wilkins Co., 1996). To assess the kinetics of inhibition, cultures of strain Newman were started in TSB containing either Congo Red or tunicamycin. Briefly, an overnight culture of S. aureus strain Newman was diluted to approximately 10^5 CFU/mL in 10 mL of TSB containing 10 mg/L Congo Red or 1 mg/L tunicamycin, and cultured at 37° C. statically. Following 2 h incubation, tunicamycin (1 mg/L final concentration) was added to the Congo Red culture, or Congo Red (10 mg/L final concentration) was added to the tunicamycin culture. Following 6 h of additional incubation bacteria were enumerated by plating serial ten-fold dilutions.

S. aureus Newman [4] = assay: Transmission electron microscopy after Congo Red; type: cell-based, Staphylococcus aureus; settings: Newman parental; 6 hours in TSB with 10 mg/L Congo Red
Procedure: Newman or Newman ΔtarO were inoculated to approximately 10^9 CFU/mL in TSB containing 10 mg/L Congo Red, and cultured at 37° C. for 6 h. Cells were collected at 0 or 6 h, fixed in Karnovsky's fixative (2% paraformaldehyde and 2.5% glutaraldehyde in cacodylate buffer [pH 7.4]), and processed for TEM using standard procedures described in Suzuki et al. (Invest. Ophthalmol. Vis. Sci. 52:3187-3192, 2011). For TEM, 60- to […] sections were obtained, viewed, and photographed with a transmission electron microscope (model 410; Philips Electronics NV, Eindhoven, The Netherlands).

S. aureus RN4220ΔltaS = assay: MIC, CLSI broth microplate assay; type: cell-based, Staphylococcus aureus
Procedure: as §4

S. aureus RN4220 = assay: MIC, CLSI broth microplate assay; type: cell-based, Staphylococcus aureus
Procedure: as §4

S. aureus Newman [5] = assay: MIC, CLSI broth microplate assay; type: cell-based, Staphylococcus aureus
Procedure: as §4

S. aureus RN4220ΔtarK = assay: MIC, CLSI broth microplate assay; type: cell-based, Staphylococcus aureus
Procedure: as §4

[6] = tested on: S. aureus RN4220ΔltaS-ltaS; assay: MIC, CLSI broth microplate assay; type: cell-based, Staphylococcus aureus
Procedure: as §4

[7] = BHI agar, dye 0.08% w/v, 37° C., 24 hours

CCN(CC)c1ccc2c(-c3ccc(S(=O)(=O)[O-])cc3S(=O)(=O)[O-])c3ccc(=[N+](CC)CC)cc-3oc2c1.[Na+] [Acid Red]
selective suppression of growth of tarO mutant but not parental strain on dye agar (S. aureus tarO mutant; [7]): conferred susceptibility

O=S(=O)(O)c1cc(Nc2nc(Nc3ccccc3)nc(N(CCO)CCO)n2)ccc1/C=C/c1ccc(Nc2nc(Nc3ccccc3)nc(N(CCO)CCO)n2)cc1S(=O)(=O)O [Calcofluor White]
selective suppression of growth of tarO mutant but not parental strain on dye agar (S. aureus tarO mutant; BHI agar, dye 0.01% w/v, 37° C., 24 hours): conferred susceptibility

Nc1c(/N=N/c2ccc(-c3ccc(/N=N/c4cc(S(=O)(=O)O)c5ccccc5c4N)cc3)cc2)cc(S(=O)(=O)O)c2ccccc12 [Congo Red]
toxicity for C. elegans (C. elegans): little toxicity
rescue of infected nematodes (survival) [1]: little effect; also recorded: inability
growth on agar with Congo Red (S. aureus ltaS mutant): no effect
time after addition of Congo Red at which bacteria began to die (S. aureus Newman ΔtarO): 3 h
growth on agar with Congo Red (S. aureus tarA mutant): neither tarA nor tarO strains grew
growth on agar with Congo Red (S. aureus tarK mutant): not affected
rescue of infected nematodes (survival) [2]: rescue
growth on agar with Congo Red (S. aureus tarO mutant; BHI agar, 37° C., 24 hours): highly susceptible; also recorded: neither tarA nor tarO strains grew
growth on agar with Congo Red (S. aureus tarO mutant; LB agar, 30° C. and 37° C.): inhibited
MIC ([3]; Staphylococcus aureus): 0.5 to 4 µg/mL (≈ 0.766 to 6.13 µM)
MIC fold lower than resistant strains ([3]; tarO and tarA mutants vs parental, tarK, ltaS strains): 250-2000 fold
MIC (S. aureus NewmanΔtarO): 1 µg/mL (≈ 1.53 µM)
MIC (S. aureus RN6390): > 1020 µg/mL
MIC (S. aureus RN4220ΔtarO): 2 µg/mL (≈ 3.06 µM)
MIC (S. aureus RN6390ΔtarO): 4 µg/mL (≈ 6.13 µM)
MIC (S. aureus RN4220ΔtarA): 0.5 µg/mL (≈ 0.766 µM)
Congo Red MIC in presence of tunicamycin (S. aureus strain Newman; tunicamycin as low as 5 mg/L): 1 µg/mL
synergy with tunicamycin (S. aureus strain Newman; two-dimensional checkerboard, 20 hours, 37° C.): strong synergy
cell morphology by TEM (S. aureus Newman [4]): not detectably affected
MIC (S. aureus RN4220ΔltaS; Staphylococcus aureus, 20 h): > 1020 µg/mL
MIC (S. aureus RN4220ΔltaS; strain RN4220ΔltaS, cultured at 30° C. for 20 h): >1024 µg/mL
MIC (S. aureus RN4220; Staphylococcus aureus, RN4220): > 1020 µg/mL
MIC (S. aureus RN4220; strain RN4220): >1024 µg/mL
MIC (S. aureus Newman [5]; Staphylococcus aureus, NEWMAN): > 1020 µg/mL
MIC (S. aureus Newman [5]; strain Newman, single agent): >1024 µg/mL
MIC (S. aureus RN4220ΔtarK; Staphylococcus aureus): > 1020 µg/mL
MIC (S. aureus RN4220ΔtarK; strain RN4220ΔtarK): >1024 µg/mL
MIC ([6]; Staphylococcus aureus): > 1020 µg/mL
MIC ([6]; strain RN4220ΔltaS-ltaS (ltaS complemented on multicopy plasmid)): >1024 µg/mL

CCNc1ccc2ccccc2c1N=Nc1ccc(N=Nc2ccccc2)cc1 [Sudan Red 7B]
selective suppression of growth of tarO mutant but not parental strain on dye agar (S. aureus tarO mutant; [7]): conferred susceptibility

Nc1ccc(S(N)(=O)=O)cc1 [sulfanilamide]
MIC (S. aureus NewmanΔtarO): > 128 µg/mL
MIC (S. aureus Newman [5]; Staphylococcus aureus, strain Newman, single agent, read-out: MIC): > 128 µg/mL

Direct Red
selective suppression of growth of tarO mutant but not parental strain on dye agar (S. aureus tarO mutant; [7]): conferred susceptibility

Mordant black
selective suppression of growth of tarO mutant but not parental strain on dye agar (S. aureus tarO mutant; [7]): conferred susceptibility

tunicamycin
toxicity for C. elegans (C. elegans): dose dependent toxicity
